# From patent US12690608B2, “Arecoline salt and preparation method and product thereof” (priority 2020, dated 2026)
# Experiments:
# [1] = Surface temperature of heating element while heating the heat-not-burn cigarette (infrared thermal imager)
# Protocol: The heat-not-burn cigarette prepared by the above preparation method is heated by an aerosol generation apparatus (by means of resistance heating), and surface temperature of a heating element in a working state is tested by an infrared thermal imager.
# [2] = Comparison test on atomization (smoking machine, Cambridge filter, conversion rate k); type: physicochemical; conditions: concentrations 1-15%
# smokers = assay: Comparison test on puff experience (scores by multiple smokers); type: in vivo; conditions: same content (3%)
# Excerpt: An arecoline salt and an arecoline hydrobromide of the same content (3%) are selected for puff experience tests, and scores are given from 0 to 5 in terms of pleasure, increased heart rate, ruddy face, body fever, slight sweating and so on by evaluation of multiple smokers.
# [3] = Physicochemical analysis: appearance on standing at room temperature; conditions: salt prepared at molar ratio of arecoline to benzoic acid of 1; viscous yellow oily substance
compound,measurement,setting,value
"COC(=O)C1=CCCN(C)C1.O=C(O)c1ccccc1 [arecoline salt, benzoate of arecoline]",Temperature at which the arecoline salt in the cigarette can be atomized,"[1]; in heat-not-burn cigarette, generates a smokable aerosol",150-250 °C
same,Puff duration (temperature) 1 s,"[1]; surface temperature of heating element, resistance heating, heat-not-burn cigarette containing arecoline salt, puff duration 1 s",153.1 °C
same,Puff duration (temperature) 2 s,"[1]; surface temperature of heating element, resistance heating, heat-not-burn cigarette containing arecoline salt, puff duration 2 s",228.3 °C
same,Puff duration (temperature) 3 s,"[1]; surface temperature of heating element, resistance heating, heat-not-burn cigarette containing arecoline salt, puff duration 3 s",241.1 °C
same,Conversion rate compared with arecoline hydrobromide,[2],obviously higher than that of the arecoline hydrobromide
same,"Puff experience compared with arecoline hydrobromide (pleasure, increased heart rate, ruddy face, body fever, slight sweating)",smokers,obviously superior to the arecoline hydrobromide
same,Change of appearance when placed at room temperature,[3],darkens slowly when placed at room temperature
